The first assay has as its target T1, USP7 (Homo sapiens, UniProt Q93009).
T1 construct: USP7, construct USP7 (208-1102) 6*His, Viva Biotech; 6xHis (C); purchased Viva Biotech
Description: USP7 Assay A (Ubitquin-Rhodamine 110 Assay). The assay is classed as biochemical. The note with it: USP7 activity in USP7 assay A and B (table does not say which assay per compound); read-out: USP7_IC50. The essentials: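 Enzyme and compound sat together for 30 min before Ub-Rh110 was added, in buffer of 20 mM Tris-HCl (pH 8.0), 1 mM GSH, 0.03% BGG and 0.01% Triton X-100.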
T1 sequence (Q93009 208-1102): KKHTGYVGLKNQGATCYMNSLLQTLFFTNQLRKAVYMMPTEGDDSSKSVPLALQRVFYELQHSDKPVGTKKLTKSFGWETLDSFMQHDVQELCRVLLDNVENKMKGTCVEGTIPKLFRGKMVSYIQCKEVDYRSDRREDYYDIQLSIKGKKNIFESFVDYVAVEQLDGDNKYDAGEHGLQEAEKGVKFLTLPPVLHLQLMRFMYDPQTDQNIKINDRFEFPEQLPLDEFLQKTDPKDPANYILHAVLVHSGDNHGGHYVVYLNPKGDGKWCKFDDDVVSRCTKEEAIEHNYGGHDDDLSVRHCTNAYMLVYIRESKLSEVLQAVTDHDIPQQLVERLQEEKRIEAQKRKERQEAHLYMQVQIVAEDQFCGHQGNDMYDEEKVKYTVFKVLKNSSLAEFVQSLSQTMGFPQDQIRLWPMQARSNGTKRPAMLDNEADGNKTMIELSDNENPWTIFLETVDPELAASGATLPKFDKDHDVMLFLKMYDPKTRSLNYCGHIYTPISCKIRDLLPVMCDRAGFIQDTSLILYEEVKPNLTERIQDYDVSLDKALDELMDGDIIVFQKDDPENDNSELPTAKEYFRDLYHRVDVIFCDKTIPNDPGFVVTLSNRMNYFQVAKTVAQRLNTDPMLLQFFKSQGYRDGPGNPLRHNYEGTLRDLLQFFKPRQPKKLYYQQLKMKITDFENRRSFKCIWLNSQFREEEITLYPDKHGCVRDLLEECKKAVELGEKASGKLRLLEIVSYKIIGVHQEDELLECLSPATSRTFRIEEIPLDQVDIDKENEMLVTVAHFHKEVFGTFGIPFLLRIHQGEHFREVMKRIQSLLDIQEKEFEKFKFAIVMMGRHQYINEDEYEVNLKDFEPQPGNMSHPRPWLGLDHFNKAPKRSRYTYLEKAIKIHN
On to `CC1(C(=O)N2CCC(O)(Cn3cnc4c(cnn4-c4ccc(OCC5(F)CCC5)cc4)c3=O)CC2)CCC1` [Compound I-1137], for which the IC50 was < 200 nM. Consider `Cc1ccc(-n2ncc3c(=O)n(CC4(O)CCN(C(=O)c5ccc(Cl)cc5N)CC4)cnc32)cc1` [Compound I-1140], for which the IC50 was 200 to 1000 nM. The same measure, in the same setting: to `O=C(C[C@H](C(F)F)n1cc(F)cn1)N1CCC(O)(Cn2cnc3c(cnn3-c3ccc(F)cc3)c2=O)CC1` [Compound I-1159] belongs < 200 nM; to `Cc1ccc(-n2ncc3c(=O)n(CC4(O)CCN(C(=O)c5ccc(Oc6ccc(OCCO)cn6)cc5)CC4)cnc32)cc1` [Compound I-1160], 200 to 1000 nM; to `Cn1cc(C(=O)N2CCC(O)(Cn3cnc4c(cnn4-c4ccc(F)cc4)c3=O)CC2)c(Cc2ccccc2)n1` [Compound I-1161], < 200 nM.

`C[C@H](c1ccccc1)c1nn(C)cc1C(=O)N1CCC(O)(Cn2cnc3c(cnn3-c3ccc(F)cc3)c2=O)CC1` [Compound I-1162]: the IC50 is < 200 nM. Turning to `C[C@@H](c1ccccc1)c1nn(C)cc1C(=O)N1CCC(O)(Cn2cnc3c(cnn3-c3ccc(F)cc3)c2=O)CC1` [Compound I-1163], the IC50 lay within 1000 to 10000 nM. Turning to `Cc1onc(Cc2ccccc2)c1C(=O)N1CCC(O)(Cn2cnc3c(cnn3-c3ccc(F)cc3)c2=O)CC1` [Compound I-1164], the IC50 is < 200 nM. As to `O=C(C[C@@H](C(F)F)n1ccc(F)n1)N1CCC(O)(Cn2cnc3c(cnn3-c3ccc(Cl)cc3)c2=O)CC1` [Compound I-1166], the IC50 is < 200 nM. For the molecule `O=C(C[C@H](C(F)F)n1ccc(F)n1)N1CCC(O)(Cn2cnc3c(cnn3-c3ccc(Cl)cc3)c2=O)CC1` [Compound I-1167], the IC50 fell in the range of 1000 to 10000 nM. As for `CC1(O)CCN(c2ccc(-n3ncc4c(=O)n(CC5(O)CCN(C(=O)c6ccc(F)cc6)CC5)cnc43)cc2)C1` (stereo not shown) [Compound I-1168], the IC50 was in the range of 200 to 1000 nM.

`O=C(c1ccc(F)cc1)N1CCC(O)(Cn2cnc3c(cnn3-c3ccc(N4CCCn5ccnc54)cc3)c2=O)CC1` [Compound I-1170]: the IC50 lay within 200 to 1000 nM.

Regarding `Cc1nc2n(n1)CCN(c1ccc(-n3ncc4c(=O)n(CC5(O)CCN(C(=O)c6ccc(F)cc6)CC5)cnc43)cc1)C2` [Compound I-1176], the IC50 lay in the range of 1000 to 10000 nM. The same measure, in the same setting: to `O=C(c1ccc(F)cc1)N1CCC(O)(Cn2cnc3c(cnn3-c3ccc(N4CCn5ncnc5C4)cc3)c2=O)CC1` [Compound I-1178] belongs 1000 to 10000 nM; to `O=C(C1CCC(Oc2cccnn2)CC1)N1CCC(O)(Cn2cnc3c(cnn3-c3ccc(F)cc3)c2=O)CC1` (stereo not shown) [Compound I-1212], 200 to 1000 nM.

Still in this assay, the particulars now being: USP7 assay A and B (table does not say which assay per compound); read-out: USP7_IC50.
In the case of `CO[C@@H]1CCN(c2ccc(-n3ncc4c(=O)n(CC5(O)CCN(C(=O)N(C)C)CC5)cnc43)cc2)C1` [Compound I-1138], the IC50 fell in the range of 1000 to 10000 nM.

In the case of `Cc1ccc(-n2ncc3c(=O)n(CC4(O)CCN(C(=O)C[C@H](C)c5ccccc5)CC4)cnc32)cc1` [Compound I-1139], the IC50 was < 200 nM. Consider `Cc1ccc(-n2ncc3c(=O)n(CC4(O)CCN(C(=O)c5ccc(OC6CCC(O)CC6)cc5)CC4)cnc32)cc1` (stereo not shown) [Compound I-1141, 5-((4-Hydroxy-1-(4-(4-hydroxycyclohexyloxy)benzoyl)piperidin-4-yl)methyl)-1-p-tolyl-1H-pyrazolo[3,4-d]pyrimidin-4 (5H)-one], for which the IC50 was in the range of 1000 to 10000 nM. On the same count and under the same terms, the figure for `Cc1ccc(-n2ncc3c(=O)n(CC4(O)CCN(C(=O)c5ccc(OC6CN(C)C6)cc5)CC4)cnc32)cc1` [Compound I-1142] is 1000 to 10000 nM; for `Cc1ccc(-n2ncc3c(=O)n(CC4(O)CCN(C(=O)c5ccc(OC6CCOCC6)cc5)CC4)cnc32)cc1` [Compound I-1144] it is 1000 to 10000 nM; for `Cc1ccc(-n2ncc3c(=O)n(CC4(O)CCN(C(=O)c5ccc(OC6CCNCC6)cc5)CC4)cnc32)cc1` [Compound I-1145] it is 1000 to 10000 nM. `O=C(C1CC1)N1CCC(O)(Cn2cnc3c(cnn3-c3ccc(NCCN4CCCCC4)cc3)c2=O)CC1` [Compound I-1146]: the IC50 fell in the range of 200 to 1000 nM. `CC(C)OCCNc1ccc(-n2ncc3c(=O)n(CC4(O)CCN(C(=O)C5CC5)CC4)cnc32)cc1` [Compound I-1149]: the IC50 was in the range of 1000 to 10000 nM. On the same count and under the same terms, to `CN1CCCC(CNc2ccc(-n3ncc4c(=O)n(CC5(O)CCN(C(=O)C6CC6)CC5)cnc43)cc2)C1` (stereo not shown) [Compound I-1151] belongs 200 to 1000 nM. As for `O=C(C1CC1)N1CCC(O)(Cn2cnc3c(cnn3-c3cccc(NCc4ccccc4)c3)c2=O)CC1` [Compound I-1155], the IC50 is 200 to 1000 nM.

With `O=C(C1CC1)N1CCC(O)(Cn2cnc3c(cnn3-c3cccc(NCc4cccnc4)c3)c2=O)CC1` [Compound I-1158], the IC50 lay in the range of 1000 to 10000 nM. The same measure, in the same setting: to `O=C(C1CC1)N1CCC(O)(Cn2cnc3c(cnn3-c3ccc(NCCc4ccccc4)cc3)c2=O)CC1` [Compound I-1187] belongs 1000 to 10000 nM; to `COc1ccc(Nc2ccc(-n3ncc4c(=O)n(CC5(O)CCN(C(=O)C6CC6)CC5)cnc43)cc2)cn1` [Compound I-1191], 1000 to 10000 nM. The same measure, in the same setting: the figure for `O=C(C1CC1)N1CCC(O)(Cn2cnc3c(cnn3-c3cccc(NCCN4CCOCC4)c3)c2=O)CC1` [Compound I-1194] is 1000 to 10000 nM. Consider `CC(C)OCCNc1cccc(-n2ncc3c(=O)n(CC4(O)CCN(C(=O)C5CC5)CC4)cnc32)c1` [Compound I-1196], for which the IC50 lay in the range of 1000 to 10000 nM. For `CN1CCCC(CNc2cccc(-n3ncc4c(=O)n(CC5(O)CCN(C(=O)C6CC6)CC5)cnc43)c2)C1` (stereo not shown) [Compound I-1197], the IC50 lay in the range of 200 to 1000 nM. As for `O=C(C1CC1)N1CCC(O)(Cn2cnc3c(cnn3-c3ccc(N4CCCC4)cc3)c2=O)CC1` [Compound I-1199], the IC50 lay in the range of 1000 to 10000 nM. For the molecule `O=C(C1CC1)N1CCC(O)(Cn2cnc3c(cnn3-c3cccc(N4CCCC4)c3)c2=O)CC1` [Compound I-1200], the IC50 lay in the range of 200 to 1000 nM. For `O=C(C1CC1)N1CCC(O)(Cn2cnc3c(cnn3-c3cccc(N4CCCCC4)c3)c2=O)CC1` [Compound I-1202], the IC50 lay within 1000 to 10000 nM. Turning to `O=C(C1CC1)N1CCC(O)(Cn2cnc3c(cnn3-c3cccc(N4CCC(c5ccccc5)CC4)c3)c2=O)CC1` [Compound I-1205], the IC50 fell in the range of 1000 to 10000 nM.

Take `CC(=O)NC1CCN(c2ccc(-n3ncc4c(=O)n(CC5(O)CCN(C(=O)C6CC6)CC5)cnc43)cc2)CC1` [Compound I-1208]: the IC50 lay within 1000 to 10000 nM. Still for that read-out and setting: to `CN(C)C1CCN(c2cccc(-n3ncc4c(=O)n(CC5(O)CCN(C(=O)C6CC6)CC5)cnc43)c2)CC1` [Compound I-1209] belongs 200 to 1000 nM. Same read-out and setting: to `CC(=O)N1CCN(c2ccc(-n3ncc4c(=O)n(CC5(O)CCN(C(=O)C6CC6)CC5)cnc43)cc2)CC1` [Compound I-1211] belongs 1000 to 10000 nM; to `O=C(C1CC1)N1CCC(O)(Cn2cnc3c(cnn3-c3ccc(-c4ccccn4)cc3)c2=O)CC1` [Compound I-1214], 1000 to 10000 nM. `O=C(C1CC1)N1CCC(O)(Cn2cnc3c(cnn3-c3ccc(N4CCC5(CCOCC5)C4)cc3)c2=O)CC1` [Compound I-1216]: the IC50 was 1000 to 10000 nM. Regarding `O=C(C1CC1)N1CCC(O)(Cn2cnc3c(cnn3-c3cccc(Nc4ccncc4)c3)c2=O)CC1` [Compound I-1232], the IC50 was 1000 to 10000 nM. As for `O=C(C1CC1)N1CCC(O)(Cn2cnc3c(cnn3-c3ccc(Nc4ccc(N5CCOCC5)cc4)cc3)c2=O)CC1` [Compound I-1234], the IC50 lay within 1000 to 10000 nM. Still for that read-out and setting: the figure for `O=C(C1CC1)N1CCC(O)(Cn2cnc3c(cnn3-c3cccc(Nc4ccc5ncsc5c4)c3)c2=O)CC1` [Compound I-1257] is 200 to 1000 nM; for `N#Cc1ccc(Nc2ccc(-n3ncc4c(=O)n(CC5(O)CCN(C(=O)C6CC6)CC5)cnc43)cc2)nc1` [Compound I-1277] it is 1000 to 10000 nM; for `O=C(c1ccc(F)cc1)N1CCC(O)(Cn2cnc3c(cnn3-c3cccc(OCc4ccccc4)c3)c2=O)CC1` [Compound I-1285] it is 1000 to 10000 nM. For the molecule `CN(C)C(=O)N1CCC(O)(Cn2cnc3c(cnn3-c3ccc(OCC4CC4)cc3)c2=O)CC1` [Compound I-1289], the IC50 fell in the range of 1000 to 10000 nM. On to `CN(C)C(=O)N1CCC(O)(Cn2cnc3c(cnn3-c3ccc(OCC4CCC4)cc3)c2=O)CC1` [Compound I-1295], for which the IC50 is 1000 to 10000 nM. On the same count and under the same terms, the figure for `NC(=O)COc1ccc(-n2ncc3c(=O)n(CC4(O)CCN(C(=O)c5ccc(F)cc5)CC4)cnc32)cc1` [Compound I-1307] is 1000 to 10000 nM; for `CN1CCCCC1COc1ccc(-n2ncc3c(=O)n(CC4(O)CCN(C(=O)c5ccc(F)cc5)CC4)cnc32)cc1` (stereo not shown) [Compound I-1313] it is 200 to 1000 nM; for `CN1CCCCC1COc1cccc(-n2ncc3c(=O)n(CC4(O)CCN(C(=O)c5ccc(F)cc5)CC4)cnc32)c1` (stereo not shown) [Compound I-1314] it is 200 to 1000 nM. In the case of `N#Cc1cccc(COc2ccc(-n3ncc4c(=O)n(CC5(O)CCN(C(=O)c6ccc(F)cc6)CC5)cnc43)cc2)c1` [Compound I-1318], the IC50 lay in the range of 1000 to 10000 nM. In the case of `N#CCOc1ccc(-n2ncc3c(=O)n(CC4(O)CCN(C(=O)c5ccc(F)cc5)CC4)cnc32)cc1` [Compound I-1320], the IC50 fell in the range of 1000 to 10000 nM. Take `O=C(c1ccc(F)cc1)N1CCC(O)(Cn2cnc3c(cnn3-c3ccc(OCC4CCOCC4)cc3)c2=O)CC1` [Compound I-1324]: the IC50 is 1000 to 10000 nM. Take `O=C(c1ccc(F)cc1)N1CCC(O)(Cn2cnc3c(cnn3-c3cccc(OCC4CCOCC4)c3)c2=O)CC1` [Compound I-1325]: the IC50 was 1000 to 10000 nM. Turning to `COCCOc1ccc(-n2ncc3c(=O)n(CC4(O)CCN(C(=O)c5ccc(F)cc5)CC4)cnc32)cc1` [Compound I-1363], the IC50 lay in the range of 1000 to 10000 nM. `O=C(Nc1ccc(-n2ncc3c(=O)n(CC4(O)CCN(C(=O)C5CC5)CC4)cnc32)cc1)C1CC1` [Compound I-1377]: the IC50 lay in the range of 1000 to 10000 nM. `O=C(Nc1ccc(-n2ncc3c(=O)n(CC4(O)CCN(C(=O)C5CC5)CC4)cnc32)cc1)c1ccccc1F` [Compound I-1380]: the IC50 is 1000 to 10000 nM.

Consider `O=C(Nc1ccc(-n2ncc3c(=O)n(CC4(O)CCN(C(=O)C5CC5)CC4)cnc32)cc1)c1ccccn1` [Compound I-1383], for which the IC50 was 1000 to 10000 nM.

The values are drawn from US9902728B2, “Pyrrolo and pyrazolopyrimidines as ubiquitin-specific protease 7 inhibitors” (Forma Therapeutics, Inc., priority 2014, dated 2018).
